Experimental data taken from publication PMC9399058, “Preclinical evaluation of FAP-2286 for fibroblast activation protein targeted radionuclide imaging and therapy” (European Journal of Nuclear Medicine and Molecular Imaging, 2022).
Read-outs that look alike come from different tables or passages of the source. Blank lines part the entries; values can stand above or below the compound they belong to.

Key:
HEK-FAP xenografts = assay: SPECT/CT biodistribution and tumor dosimetry of 177Lu-labeled tracers in HEK-FAP tumor-bearing mice; type: in vivo, mouse
Experimental: (§1) HEK-FAP cell line was generated using the vector pTAR to insert FAP complementary DNA by recombinase-mediated cassette exchange into the pre-tagged HEK293 cells (InSCREENeX). For in vivo HEK-FAP studies, female nude or SCID beige mice (Charles River Laboratories) were subcutaneously implanted with 5 × 10^6 HEK-FAP cells in 150 µL serum-free media:Matrigel (1:1) (Corning). For the patient-derived xenograft (PDX) efficacy study, female NMRI nu/nu mice (Janvier Labs) were subcutaneously implanted with Sarc4809 fragments (Experimental Pharmacology & Oncology Berlin-Buch). All animal experiments were carried out under licenses approved by the respective authorities and in compliance with guidelines on animal welfare.
(§2) Thirty megabecquerels (30 MBq/nmol) ^111In-FAP-2286 (n = 9) or ^111In-FAPI-04 (n = 6) was injected intravenously (IV) into HEK-FAP tumor-bearing mice and the distribution of the radiotracers was assessed using the NanoSPECT/computed tomography (CT) system (Mediso). For PET imaging, 10 MBq of ^68Ga-FAP-2286 or ^68Ga-FAPI-46 (10 MBq/nmol) was given IV into HEK-FAP tumor-bearing mice (n = 3) followed by PET/CT analysis using the nanoScan PET/CT system (Mediso). For SPECT imaging of ^177Lu-labeled FAP-2286 or ^177Lu-labeled FAPI-46, 30 MBq was administered IV (30 MBq/nmol; n = 3) and the distribution of the radiotracers was assessed using the nanoScan SPECT/CT system (Mediso).
(§3) The animal studies were conducted in different laboratories. ^111In-Imaging and efficacy studies using the HEK-FAP model and different doses of ^177Lu-FAP-2286 as well as the Sarc4809 PDX efficacy study took place at Berlin Experimental Imaging Center (BERIC, Germany). The Sarc4809 model was originally derived from a primary lesion of undifferentiated pleomorphic sarcoma. These studies were performed in either female swiss nude (Charles River Laboratories, France – ^111In-Imaging), NMRI nude (Janvier Labs, France – PDX efficacy study) or SCID beige mice (Charles River Laboratories, Germany - ^111In-Imaging). ^68Ga-Imaging and comparative studies with ^177Lu labeled FAP-2286 and FAPI-46 were performed at Minerva Imaging ApS, Denmark using female athymic nude mice (Charles River Laboratories, Germany). For all experiments animals were ordered with an age of approximately 6 weeks. Animals were allowed an acclimatization period of at least one week prior to inoculation. Animals were housed in an animal room with 12 hours light and 12 hours darkness with free access to food and water. A maximum number of 5 animals were housed in the same cage, cages were equipped with nesting material and plastic or paper houses for hiding. Each cage was labeled with study ID, group and animal numbers and test compound. For efficacy studies animals were randomized according to tumor size. Animals were checked daily for any signs of illness or abnormal behavior. Main humane endpoints were defined as tumor volumes > 1500 mm^3, tumor burden > 10% of animal weight, body weight loss >15% and tumor ulceration. When reaching one of these criteria the animal was sacrificed by cervical dislocation. All animal experiments were approved either by the Regional Office for Health and Social Affairs Berlin (LAGeSo), Germany or the National Animal Experiments Inspectorate under the Ministry of Environment and Food of Denmark.
(§4) Imaging and image analysis were performed as described. During the scan, mice were kept under isoflurane anesthesia, and body temperature was maintained under warm air. The following acquisition parameters were used for the respective imaging modality.
(§5) For quantification, VivoQuant (InviCRO) was used to draw regions of interest (ROIs) in relevant tissues, with a ROI drawn over the left ventricle of the heart to serve as blood pool surrogate. […]

[1] = as above; type: in vivo, mouse; conditions: mouse, in vivo, iv, 30 MBq IV, HEK-FAP mice; for tissue uptake at 72 h: 72 h p.i.
Experimental: as §1, §2, §3, §4, §5

Sarc4809 PDX = assay: Efficacy study in the Sarc4809 sarcoma PDX model; type: in vivo, mouse; conditions: 30 MBq single IV dose, Sarc4809 mice
Experimental: as §1
A single dose of the indicated treatments was administered IV on day 0, with vehicle (saline), nonradioactive ^natLu-FAP-2286, 30 or 60 MBq ^177Lu-FAP-2286 (30 MBq/nmol and 60 MBq/nmol, respectively), or 30 MBq ^177Lu-FAPI-46 (30 MBq/nmol). Tumor length and width were measured by caliper, and tumor volume was calculated as 0.5 × (length × width^2). Tumor growth and body weight were monitored 3 times weekly. […]
Calculation of relative tumor volume. Relative tumor volume (RTV as %) is calculated according to the following formula: RTV = (Tᵢ/ T0) × 100, where Tᵢ is the tumor volume at day i and T0 is the tumor volume at day 0. […]

neoplastic lesions = system: neoplastic lesions; set-up: method as in PMID 34168013; conditions: first-in-human experience of 11 patients ref 51; cited from earlier work
HEK-FAP cells = assay: Fluorescence microscopy of cellular internalization and retention in HEK-FAP cells; type: cell-based, human; conditions: 5 nM for 1 h at 37 °C, then compound-free medium up to 72 h
Experimental: HEK-FAP cells were seeded on chamber slides (ibidi) and incubated with 5 nM of AF488-labeled FAP-2286 or FAPI-46 for 1 h at 37 °C. Cells were then washed and further incubated for various timepoints. Cell nuclei were stained with 1 µg/mL Hoechst 33342 dye. Lysosomes were stained using LysoTracker Deep Red (Thermo Fisher Scientific). Images were acquired by using the BZ X800E fluorescence microscope (Keyence) at 40 × magnification.
For fluorescence microscopy assay, HEK-FAP cells were seeded in Poly-D-Lysine-coated 8-well chamber slides at 1 x 10^5 cells per well and incubated for 3 days at 37°C, 5% CO2 in a humified incubator. Attached cells were incubated for 1 hour with 5 nM AF488-labeled FAP-2286 or FAPI-46 in incubation buffer at 37°C. For visualization of lysosomes and late endosomes, cells were stained with LysoTracker DeepRed (Thermo Fisher) for 30 minutes at 37 °C.
Cells were washed three times and incubation buffer was added. Following various incubation periods, cells were washed with HBSS and incubated for 5 min with 1 µg/mL Hoechst 33342 dye for nuclei counterstaining at room temperature.
Fluorescence images were acquired by using a Keyence BZ-X800E fluorescence microscope with 40x magnification.

HEK-FAP xenograft tumors = assay: SPECT/CT biodistribution of 111In-labeled tracers in HEK-FAP tumor-bearing mice; type: in vivo, mouse; conditions: every 24 h; HEK-FAP mouse tumor model; 111In-FAPI-04 (Supplementary Fig. S6)
Experimental: as §1, §2, §3, §4, §5

tumor retention (HEK-FAP xenografts; HEK-FAP mouse model, SPECT/CT image quantification): ≥ 72 h
tumor absorbed dose (HEK-FAP xenografts; HEK-FAP tumor self-dose): 2.8 Gy/MBq
time-integrated activity coefficient (TIAC), tumor (HEK-FAP xenografts; HEK-FAP tumor, calculated from SPECT/CT, extrapolated beyond 72 h): 11.2 MBq*h/MBq
tissue uptake at 3 h ([1]; 3 h after injection, read-out: kidney accumulation): 2.2 %ID/g
tissue uptake at 3 h ([1]; 3 h p.i., n=3, read-out: tumor uptake): 21.1 %ID/g
tissue uptake at 72 h ([1]; n=3, read-out: tumor uptake): 16.4 %ID/g
tissue uptake at 72 h ([1]; read-out: kidney accumulation): 0.6 %ID/g
Max. BWL, Day 2 (Sarc4809 PDX): 3%
Compound: CCCCCC(=O)N[C@H]1CSCc2cc(CSCCNC(=O)CN3CCN(CC(=O)O)CCN(CC(=O)O)CCN(CC(=O)O)CC3)cc(c2)CSC[C@@H](C(=O)O)NC(=O)[C@H](Cc2ccccc2)NC(=O)[C@H](CCC(N)=O)NC(=O)[C@H]([C@@H](C)O)NC(=O)[C@@H]2CCCN2C(=O)[C@@H]2CCCN2C1=O [^177Lu-FAP-2286, metal not drawn]
SPECT/CT biodistribution in patients (neoplastic lesions): significant tumor uptake and long retention

Compound: CCCCCC(=O)N[C@H]1CSCc2cc(CSCCNC(=O)CN3CCN(CC(=O)O)CCN(CC(=O)O)CCN(CC(=O)O)CC3)cc(c2)CSC[C@@H](C(=O)N[C@@H](CCCCNC(=O)c2ccc(-c3c4ccc(=N)c(S(=O)(=O)O)c-4oc4c(S(=O)(=O)O)c(N)ccc34)c(C(=O)O)c2)C(N)=O)NC(=O)[C@H](Cc2ccccc2)NC(=O)[C@H](CCC(N)=O)NC(=O)[C@H]([C@@H](C)O)NC(=O)[C@@H]2CCCN2C(=O)[C@@H]2CCCN2C1=O [AF488-FAP-2286]
cellular retention by fluorescence microscopy (HEK-FAP cells): retained in HEK-FAP cells and secluded in endosomes out to 72 h

tumor clearance rate (HEK-FAP xenograft tumors): approximately 50%
Compound: N#C[C@@H]1CC(F)(F)CN1C(=O)CNC(=O)c1ccnc2ccc(OCCCN3CCN(C(=O)CN4CCN(CC(=O)O)CCN(CC(=O)O)CCN(CC(=O)O)CC4)CC3)cc12 [FAPI-04, reference compound]
